Legend:
[1] = biological target: adenosine A1 receptor (A1R) (Homo sapiens (Human), UniProt P30542); test: Inhibition of adenosine A1 receptor cAMP signaling pathway (HTRF cAMP, CHO-K1/A1R cells); type: cell-based; conditions: Table 2; for IC50: CHO-K1/A1R cells, forskolin 10 μM, CPA 10 nM, cAMP HTRF; for IC50 ratio (A1R/A2aR): selectivity A1R over A2aR
From the text: Test Example 1. Determination of the inhibition activity of the compounds of the present invention on the adenosine A2a receptor (A2aR) cAMP signaling pathway, the adenosine A2b receptor (A2bR) cAMP signaling pathway, the adenosine A1 receptor (A1R) cAMP signaling pathway and the adenosine A3 receptor (A3R) cAMP signaling pathway.
The inhibition activity of the compounds of the present invention on the adenosine A2a receptor cAMP signaling pathway, the adenosine A2b receptor cAMP signaling pathway, the adenosine A1 receptor cAMP signaling pathway and the adenosine A3 receptor cAMP signaling pathway was determined by the following method. The experimental method is briefly described as follows:
2.2 Adenosine A1 receptor
CHO-K1/A1R cells were cultured in DMEM/F12 medium containing 10% fetal bovine serum and 1 mg/ml G418. The cells were digested with the cell separation buffer during the experiment. The cells were then resuspended in the balanced salt buffer containing 20 mM HEPES and 0.1% bovine serum albumin and counted, and the cell density was adjusted to 5×10^5 cells/ml. In the 384-well plate, each well was added with 12.5 μl of cell suspension, and 6.25 μl of test compound (4× concentration) formulated with the balanced salt buffer containing 20 mM HEPES, 0.1% bovine serum albumin, 54 μM rolipram and 2.7 U/ml adenosine deaminase, and the plate was incubated at room temperature for 30 minutes. Each well was then added with 6.25 μl of forskolin and N6-cyclopentyladenosine (4× concentration) formulated with the balanced salt buffer containing 20 mM HEPES, 0.1% bovine serum albumin, 54 μM rolipram and 2.7 U/ml adenosine deaminase, and the plate was incubated at room temperature for 30 minutes. The final concentrations of the compounds were: 100000, 10000, 1000, 100, 10, 1, 0.1 and 0 nM. The final concentration of forskolin was 10 μM. The final concentration of CPA was 10 nM. Intracellular cAMP concentration was detected with the cAMP dynamic 2 kit. cAMP-d2 and Anti-cAMP-Eu-Cryptate were diluted respectively with the cAMP lysis buffer at a ratio of 1:4. Each well was added with 12.5 μl of diluted cAMP-d2, followed by addition of 12.5 μl of diluted Anti-cAMP-Eu-Cryptate, and the plate was incubated at room temperature in the dark for 1 hour. The HTRF signal values were read by the PHERAstar multi-function microplate reader.

[2] = Brain permeability in mice (plasma/brain concentration plus equilibrium dialysis); type: in vivo; conditions: mouse, not told, po; female C57 mice, 20 mg/kg intragastric, 0.5 h after administration; read-out: Blood-brain permeability index (Kp-unbound)
Procedure: The brain permeability of the compounds of the present invention in mice was determined by the following experimental method:
Four female C57 mice were maintained on a 12 hours light/12 hours dark cycle, in a constant temperature of 24±3° C. and a humidity of 50-60%, and had free access to food and water. The compounds were administered intragastrically to the mice after fasting overnight. The administration dosage was 20 mg/kg. The drug administration group was sacrificed after blood collection at 0.5 h after drug administration (collected blood volume: 0.5 ml). The blood sample was stored in heparinized tubes, and centrifuged for 10 minutes at 3500 rpm to separate the plasma, which was marked as plasma 1 and stored at −80° C. […]
The equilibrium dialysis tube of RED Device Inserts was inserted into a 96-well plate. […] The chromatographic peak area ratios of the total drug (plasma chamber) and the free drug (buffer chamber) to the internal standard were determined directly by the LC/MS/MS method established above respectively, and the free percent (fuplasma%) was calculated. […]
5.1 The drug concentrations in plasma 1 and brain tissue 1 of mice 0.5 h after drug administration were determined by the established LC/MS/MS method respectively, which were the total concentration (Ctotal, p and Ctotal, b); […]

Chain of adenosine A1 receptor (A1R) (P30542 whole entry): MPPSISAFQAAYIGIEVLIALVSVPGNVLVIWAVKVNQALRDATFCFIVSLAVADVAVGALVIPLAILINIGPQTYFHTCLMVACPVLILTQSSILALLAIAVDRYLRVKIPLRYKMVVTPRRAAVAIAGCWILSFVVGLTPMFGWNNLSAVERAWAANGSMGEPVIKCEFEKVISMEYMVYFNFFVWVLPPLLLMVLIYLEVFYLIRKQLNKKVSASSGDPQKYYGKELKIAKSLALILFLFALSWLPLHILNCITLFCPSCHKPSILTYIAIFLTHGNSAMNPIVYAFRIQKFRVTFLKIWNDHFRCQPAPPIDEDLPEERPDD

IC50 [1] [nM] | IC50 ratio (A1R/A2aR) [1] | Kp at 0.5 h [2] | SMILES
409 | 103 | 0.01 | Cc1cc(-c2c(-c3ccc(F)cc3F)nc(N)n3cnnc23)cc(C(F)(F)F)n1 [Example 18, 7-(2,4-Difluorophenyl)-8-(2-methyl-6-(trifluoromethyl)pyridin-4-yl)-[1,2,4]triazolo[4,3-c]pyrimidin-5-amine]
519 | 223 | 0.015 | Cc1cc(-c2c(-c3ccc(F)cc3F)nc(N)n3cnnc23)cc(C(F)F)n1 [Example 20, 8-(2-(Difluoromethyl)-6-methylpyridin-4-yl)-7-(2,4-difluorophenyl)-[1,2,4]triazolo[4,3-c]pyrimidin-5-amine]
